Test results: patent US7888389B2 (The Regents of the University of Michigan, priority 2002, dated 2011)
Where two headings read alike, the source gives them in different places.

Assays:
[1] = Open label study of TM for initial treatment of Wilson's disease; type: in vivo, human
Source text: The inventors have carried out an open label study of the use of TM for initial treatment of neurologically presenting Wilson's disease patients for the past several years. The inventors have developed both a spectrophotometric and bioassay for the activity of the drug, to evaluate stability, and assure potency of the drug being administered (Brewer et al., 1991a; Brewer et al., 1994b). The drug slowly loses potency when exposed to air.
The inventors have now treated a total of 51 Wilson's disease patients with TM, all of whom presented with neurological or psychiatric disease, in an open label study. These patients were all diagnosed by standard criteria. […] Some of them were treated briefly with other agents prior to this trial. Two patients had psychiatric but not neurological symptoms.
With three exceptions in the earliest part of the study, all patients received a dose of 20 mg tid with meals, or qid with three meals and a snack. Thus, the only difference between a patient receiving 120 mg and 140 mg total dose is that the former was receiving 20 mg tid, or 60 mg, with meals, and the latter was receiving 20 mg qid, or 80 mg with meals plus a snack. The rest of the total daily dose was divided up into three equal doses and given between meals.

[2] = Storage stability of TM (bulk and capsules); type: physicochemical; conditions: room temperature
Source text: TM and salts of TM are available; one of the preferred salts of TM is the ammonium salt. […] TM purchased from Aldrich Chemical Company (available in one kilogram bulk lots) is certified pure for human use. The bulk drug should be stored in the absence of oxygen, or the oxygen will gradually exchange with the sulfur, rendering the drug ineffective over time. The bulk drug is therefore stored under argon.
TM was purchased in bulk lots suitable for human administration (Aldrich Chemical Company, Milwaukee, Wis.). […] At the time a prescription was written, the appropriate dose of TM was placed in gelatin capsules. […] Thus, TM was dispensed to each patient in eight-week installments throughout the trial.

[3] = system: mouse sarcoma, MCA205, and mouse melanoma, B16B16; experiment: Mouse tumor model, injected tumor cells; type: in vivo, C57B1/6J mice
Protocol: Under these guidelines, anti-angiogenesis therapeutic studies were conducted using TM in a mouse tumor model. This study involved subcutaneous or intramuscular injection of tumor cells into young adult C57B1/6J mice. Two tumors were used, a mouse sarcoma, MCA205, and a mouse melanoma, B16B16. The MCA 205 tumor cell suspension was injected subcutaneously into C57B16 mice. After the tumors were palpable, copper deficiency was induced by use of TM in half the animals, using Cp levels to monitor copper status. The other half were sham treated. Tumor growth was compared between the untreated control group and mice treated with sufficient TM to reduce Cp to about 10% of normal controls.

[4] = system: MML cells (prostate cancer) and breast cancer cells
[5] = cited from earlier work
[6] = Stability in moist heated air; type: physicochemical
[7] = system: SUM149 breast cancer cells; experiment: SUM149 orthotopic tumors in nude mice; type: in vivo
Source text: In this study, the ability of tetrathiomolybdate (TM) to abrogate or retard the growth of tumors in the mammary pads of nude mice after orthotropic injection of human breast cancer cells was studied. The highly angiogenic inflammatory breast cancer cell line called SUM149 was selected for this study. Given its high propensity to form palpable tumors within 2 weeks of injection into the mammary of 80-100% of the nude mice injected, this cell line posed a stringent test of the ability of TM to impair tumor progression.
Three groups of 5 nude mice each were set up in separate cages. Groups 2 and 3 received TM in the drinking water to average an intake of 1.2 mg/day/mouse, starting at day-7. Groups 1, 2, and 3 were injected on day 0 with 10^6 SUM149 breast cancer cells in the second thoracic mammary fat pad. On day 34, as no palpable tumors were noticeable in any of the mice in the treatment groups, TM was skipped on groups 2 and 3, and then TM was restarted on group 2at a dose of 0.6 mg/day/mouse, while TM was resumed at full dose (1.2 mg/mouse/day) in group 3.
The developing tumors were measured approximately twice weekly, and the average of the product of the bi-dimensional perpendicular diameters for each group versus time was determined. The tumors in the control group grew relatively rapidly and all animals developed tumors. […] This dose decreases copper to approximately 10-20% of baseline levels. It is this degree of copper deficiency, well tolerated in both mice and humans, which appears to be required to inhibit tumor angiogenesis.

[8] = Stability in open Petri dishes at room temperature (activity over time); conditions: for percentage activity: open Petri dishes at room temperature
Source text: FIG. 4. […] Stability of each compound was studied under conditions that exacerbate instability, i.e. the drugs were in open Petri dishes at room temperature. The percentage activity is plotted as a function of time in days.
This study was done under conditions that exacerbate instability, ie. the drugs were in open Petri dishes at room temperature.

breast cancer cells = experiment: Human breast cancer xenograft growth in athymic nude mice; type: in vivo; conditions: TM 1 mg/day; TP-TM 1 mg/day and 1.5 mg/day; p<0.01 vs control
Protocol: FIG. 5. […] 10^6 breast cancer cells were injected in the mammary fat pad of 4 groups of athymic, nude mice (5 mice per group). Control mice received no treatment.
In this study, 10^6 breast cancer cells were injected in the mammary fat pad of 4 groups of athymic, nude mice (5 mice per group). Control mice received no treatment.

[9] = among the seven patients with anemia
[10] = ½ dose of TM (0.6 mg/day/mouse)

Substance: tetrathiomolybdate [TM]
- cases of reversible anemia ([1]; 45 patients, eight weeks TM as initial therapy): 11.1%
- patients with reversible anemia/bone marrow depression ([1]; 51 patients treated): seven
- patients with reduction in platelet count [1, 9]: Three
- patients with reduction in white blood cell count [1, 9]: four
- overtreatment ([1]; dose of 180 mg/day or over): 6 of 37 patients
- overtreatment ([1]; dose of 150 or lower): 1 of 13 patients
- time to close the plasma copper-molybdenum gap (free copper to zero) ([1]; first patient): 16 days
- patients with elevation of transaminase values (AST, ALT) ([1]; in vivo): four
- quantitative speech exam scores ([1]; initial 8 weeks of TM therapy): No patient shows significant (more than 2.0 units) reduction in scores
- average fall in hemoglobin ([1]; the seven patients with anemia): 3.4 g %
- patients with significant neurological worsening (change of more than 5 units) ([1]; weeks of TM administration): 4 % of the sample
- stability in capsules [2]: stable in capsules for several months at room temperature
- tumor growth rate, final tumor size and weight ([3]; TM sufficient to reduce Cp to about 10% of normal, 16 days observation): significant effect on reducing the growth rate of tumors, and on reducing final tumor size and weight
- tumor weight normalized to total weight of the animal versus control ([3]; mouse, in vivo): weighed significantly less than the tumors in control mice
- effective decoppering serum concentration relative to threshold lethal level for cells (fold lower) [4]: 100-500 fold
- anemia ([5]; 18 mg of TM): the anemia was severe
- effects in rats ([5]; approximately 6 mg of TM per kilogram of diet): substantial effects on copper
- anemia ([5]; approximately 12 mg of TM): Mild anemia was present
- skeletal lesions ([5]; approximately 12 mg of TM): one of six animals
- prevention of toxic effects by copper ([5]; up to 36 mg of TM per kilogram of diet): could be prevented by oral supplementation with copper
- increase of loss of activity in moist heated air over ambient conditions [6]: about 10 fold
- palpable tumors in treatment groups ([7]; TM 1.2 mg/day/mouse in drinking water from day -7): no tumors were palpable until TM was skipped on day 34
- copper level ([7]; full dose TM 1.2 mg/day/mouse): 10-20 % of baseline levels
- tumor growth after day 34 ([7]; full dose TM 1.2 mg/day/mouse): only very small tumors have grown
- decrease of copper levels [7, 10]: 50%
- tumor growth after day 34 [7, 10]: the tumors grew more rapidly
- half life [8]: about 40 days
- percentage activity ([8]; Day 0): 100
- percentage activity ([8]; Day 45): 44
- percentage activity ([8]; Day 148): 9
- percentage activity ([8]; Day 211): 0
- tumor growth curves versus control animals (breast cancer cells): effectively inhibiting tumor growth
